In ChEMBL document CHEMBL1158531, “DNA strand cleaving properties and hypoxia-selective cytotoxicity of 7-chloro-2-thienylcarbonyl-3-trifluoromethylquinoxaline 1,4-dioxide” (2010):
Each block holds one compound with its values, some of them ahead of it. Calls of active or inactive are those of the source. No cut-off for these calls is given here.

Key:
[1] = tested on: Nucleic Acid; assay: Induction of DNA cleavage in supercoiled pGL2 DNA assessed as open circular DNA form-2 under hypoxic condition with NADPH:cytochrome P450 enzyme system at 5 to 25 uM after 16 hrs by agarose gel electrophoresis; format: nucleic-acid assay
[2] = tested on: V79; assay: Cytotoxicity against chinese hamster V79 cells under aerobic condition at 30 uM after 7 days by crystal violet staining; format: functional, Cricetulus griseus
[3] = tested on: V79; assay: Cytotoxicity against chinese hamster V79 cells under anaerobic condition at 2.0 uM after 7 days by crystal violet staining; format: functional, Cricetulus griseus
[4] = tested on: V79; assay: Hypoxic cytotoxicity ratio, concentration required to kill 99% chinese hamster V79 cells under aerobic condition to hypoxic condition; format: functional, Cricetulus griseus
[5] = tested on: Nucleic Acid; assay: Induction of DNA cleavage in supercoiled pGL2 DNA assessed as open circular DNA form-2 under hypoxic condition with NADPH:cytochrome P450 enzyme system at 25 uM after 16 hrs by agarose gel electrophoresis in presence of radical scavenging agent methanol; format: nucleic-acid assay
[6] = tested on: Nucleic Acid; assay: Induction of DNA cleavage in supercoiled pGL2 DNA assessed as open circular DNA form-2 under hypoxic condition with NADPH:cytochrome P450 enzyme system at 25 uM after 16 hrs by agarose gel electrophoresis in presence of radical scavenging agent ethanol; format: nucleic-acid assay
[7] = tested on: Nucleic Acid; assay: Induction of DNA cleavage in supercoiled pGL2 DNA assessed as open circular DNA form-2 under hypoxic condition with NADPH:cytochrome P450 enzyme system at 25 uM after 16 hrs by agarose gel electrophoresis in presence of radical scavenging agent t-butanol; format: nucleic-acid assay
[8] = tested on: Nucleic Acid; assay: Induction of DNA cleavage in supercoiled pGL2 DNA assessed as open circular DNA form-2 under hypoxic condition with NADPH:cytochrome P450 enzyme system at 25 uM after 16 hrs by agarose gel electrophoresis in presence of radical scavenging agent DMSO; format: nucleic-acid assay
[9] = tested on: Nucleic Acid; assay: Induction of DNA cleavage in supercoiled pGL2 DNA assessed as open circular DNA form-2 under hypoxic condition with NADPH:cytochrome P450 enzyme system at 25 uM after 16 hrs by agarose gel electrophoresis in presence of radical scavenging agent mannitol; format: nucleic-acid assay
[10] = tested on: Nucleic Acid; assay: Induction of DNA cleavage in supercoiled pGL2 DNA assessed as open circular DNA form-2 under hypoxic condition with xanthine/xanthine oxidase enzyme system at 20 uM after 16 hrs by agarose gel electrophoresis; format: nucleic-acid assay
[11] = tested on: V79; assay: Cytotoxicity against chinese hamster V79 cells under aerobic condition at 2.5 uM after 7 days by crystal violet staining; format: functional, Cricetulus griseus
[12] = tested on: V79; assay: Cytotoxicity against chinese hamster V79 cells under anaerobic condition at 0.21 uM after 7 days by crystal violet staining; format: functional, Cricetulus griseus

Activity [1]: inactive
Structure (SMILES): O=C(c1cccs1)c1nc2cc(Cl)ccc2[n+]([O-])c1C(F)(F)F

Structure (SMILES): Nc1n[n+]([O-])c2ccccc2[n+]1[O-] [TIRAPAZAMINE]
Activity [2]: 99% | Activity [3]: 99% | Ratio [4]: 75

Activity [1]: Active | Activity [5]: inactive | Activity [6]: inactive | Activity [7]: inactive | Activity [8]: inactive | Activity [9]: inactive | Activity [10]: Active
Structure (SMILES): O=C(c1cccs1)c1c(C(F)(F)F)[n+]([O-])c2ccc(Cl)cc2[n+]1[O-]
Activity [11]: 99% | Activity [12]: 99% | Ratio [4]: 16

Activity [1]: inactive
Structure (SMILES): O=C(c1cccs1)c1c(C(F)(F)F)nc2ccc(Cl)cc2[n+]1[O-]
